Where “and” joins values, the source holds several entries; their conditions need not be identical. Equal entries are not always repeated. Entries after “also recorded” stand apart in the source; their conditions may differ. Where two headings read alike, the source gives them in different places.
Assays:
[1] = test system: oligodendrocyte progenitor cells; experiment: Western blot for myelin proteins PLP/DM20 and CNPase in treated oligodendrocyte progenitor cells; assay type: cell-based, mouse; settings: for induction of PLP/DM20 and CNPase expression at low concentrations: 0.01 and 0.1, 48 hrs (FIG. 2); for EC50: Mus musculus, Oligodendrocyte progenitor cell
Procedure: Oligodendrocyte progenitors were generated from embryonic neural progenitors growing in cell aggregates known as neurospheres (Nphs). Nph were prepared from embryos at 14.5 days of gestation obtained from timed pregnant females of either wild type mice or the proteolipid protein-enhanced-green fluorescence protein (Plp-EGFP) transgenic mouse. In brief, after separation of meninges and cerebellum, cerebrum tissue was mechanically triturated with a 1 ml Gilson pipette until total tissue disaggregation was achieved, filtered through a 70 μm cell strainer (Fisher Scientific, Pittsburg, Pa.) and plated in 25 cm^2 plastic culture flasks (2 brains/flask). Nph proliferation media (NPM) was DMEM/F12, B27 neuronal supplement (Gibco, Baltimore, Md.) and 10 ng/ml EGF (Sigma, St. Louis, Mo.). After 48-72 hr, floating Nphs were passaged at a 1:3 ratio in the same medium every 3-4 days. To generate oligodendrocyte progenitors, single cells suspensions were obtained by chemical disgregation with the mouse NeuroCult dissociation kit (StemCell Technologies, Alberta, Canada). The single cell suspension was filtered through a 70 μm cell strainer and plated on 96-well poly-D-Lysine (PDL)-coated plates at a cell density of 1.5×10^4 cells/cm^2. Cells were maintained in NPM supplemented with 10 ng/ml PDGF/bFGF instead of EGF. Bipolar, oligodendrocyte progenitor cells were observed 24 hours after plating. At the Moment of treatment to induce oligodendrocyte progenitor differentiation, the media was changed to OPC differentiation media containing NPM with a 1:10 dilution of PDGF/FGF.
For myelin protein analyses, cells were grown on 100 mm culture plates and after exposure to small molecules or controls were washed twice with ice-cold PBS. RIPA lysis buffer was added to the plates and the cells were scraped, collected and disrupted with a homogenizer on ice. Cell homogenates were then centrifuged at 6,000×g, 10 min, 4° C. and supernatants separated in a fresh tube. After adding Laemli loading buffer, proteins were denaturized at 70° C. for 10 mm and loaded in gradient gels (4-20, Criterion, BioRad, Calif.). Electroforetically separated proteins were electro-transferred to nitrocellulose membranes in a semi-dry apparatus and unspecific bonds were blocked with IRdye blocking solution for at least 1 hr at RT. After washing twice with TBS-T, primary antibodies were added and incubated over night at 4° C. Membranes were incubated with secondary, IRdye-infrared conjugated antibodies for 1 hr at RT and visualized on the Odyssey scanner.
(§1) The primary screening to select positive compounds was performed at a standard concentration of 10 μM with cell morphology analysis 48 hrs after treatment. Dose response curves at 48 hrs treatment time were performed to determine the minimum concentration compounds A, A-7 and B needed to induce cell maturation. We assessed oligodendrocyte differentiation by cell morphology changes, green fluorescence in cells generated from or Plp-EGFP transgenic mouse, immunostaining for myelin proteins and western blot for expression of the oligodendrocyte markers PLP/DM20 and 2′,3′, cyclic nucleotide 3′ phosphohydrolase (CNPase). EC50 values were also calculated based on results of western blot for myelin proteins and subsequent band densitometry analysis. Additionally, we followed cell differentiation induced over long time exposure to compounds A and B (7 days, 0.1-10 μM).

[2] = test system: oligodendrocyte progenitor cells; experiment: Immunocytochemistry for PLP/DM20 and MBP, count of differentiated cells; assay type: cell-based, mouse; settings: for cell morphology after long-term exposure: compound B at the lowest concentrations (0.1 μM)
Procedure: Immunodetection of oligodendrocyte and myelin markers was performed. In brief, Oligodendrocyte cells plated on PDL-coated dishes were initially fixed in 2% paraformaldehyde (PFA) for 10 min at room temperature (RT) and then 4% PFA for 15 min, washed three times with PBS and permeabilized with 0.1% Triton X100 for 10 min at RT. After blocking with 3% BSA in PBS for 60 min a RT, the cells were incubated with primary antibodies at the indicated concentrations overnight (ON) at 4° C. The cells were washed three times with cold PBS incubated with secondary antibodies for 45 min at RT, and washed again before mounting. Immunostaining of tissue sections prepared with a sliding microtome (30 μm) was performed. In brief, tris buffered saline (TBS) containing 100 nM Sodium fluoride (TBSS) was used the all dilutions and washes. For antigen retrieval, sections were washed 3 times in TBSS, incubated in 5% methanol and 3% H2O2 for 10 min, washed 2 times, and then incubated in 10% Triton X-100 for 20 min. Blocking of unspecific bonds was performed by incubating the tissue sections with 10% NGS for 1 hr. Primary antibodies were diluted in 3% BSA containing 0.02% Triton X-100 and sections were incubated overnight in this solution. The next day the sections were washed 3 times in TBSS, followed by 1 hr incubation in secondary antibodies (1:1000) at 4° C. After several washes, the sections were mounted using Vectashield (Vector Laboratories, Burlingame, Calif.). Visualization of immunostained cells and tissue was performed on a Leica DMR (Wetzlar, Germany) or a Leica SP5 confocal microscope.
as §1
Compound A-7-induced oligodendrocyte progenitor maturation was also analyzed in comparison to control cells in immunostaining experiments to detect the myelin proteins MBP and PLP. Positive cells for these markers showing processes formation and membranous structures were counted versus total cells and counterstained with the nuclear dye Dapi after 48 hrs (Tables 3 and 4) and 7 days treatment with 0.1, 1 or 10 μM compound A-7 (FIG. 2, B).

[3] = 48 hrs, read-out: EC50 for CNPase expression (western blot)
[4] = 48 hrs, read-out: EC50 for PLP/DM20 expression (western blot)

`CC(C)N1CCN(C(=O)COc2ccc(-c3ccccc3)cc2)CC1` [Compound A-7, 1-(Biphenyl-4-yloxy)acetyl-4-isopropylpiperazine] was tested. Which “myelin protein PLP/DM20 expression compared to other compounds and controls” value [1] did it give?
The value was “dramatic up-regulation”.

And the “reduction of the amount necessary to induce the same effect as 10 μM compound A” value [1]?
The value was 1-2 orders of magnitude.

What about the “induction of PLP/DM20 expression relative to levels of the A treated cells” value ([1]; 10 μM) of the same molecule?
The value was 147%.

What about the “effect at 50 μM” value ([1]; 50 μM) of the same molecule?
The value was “slightly decreases”.

And the “induction of PLP/DM20 and CNPase expression at low concentrations” value (shortened to “induction … at low concentrations”) [1]?
The value was “observed”.

What about the EC50 [1, 3] of the same molecule?
Its EC50 is 70 nM.

What about the EC50 [1, 4] of the same molecule?
The EC50 was 30 nM.

And the “PLP/DM20 Expression (WB, % of Control)” value ([1]; Table 3, 10 μM, 48 hrs)?
The value was 286.8 % of Control.

And the “PLP/DM20 Expression (WB, % of Control)” value ([1]; Table 3, 10 μM, 48 hrs, listed as drawing 48)?
The value was 286.8 ± 16.5 n = 6; p <0.01 % of Control.

What about the “PLP/DM20 Expression (WB, % of Control)” value ([1]; Table 4, 1 μM) of the same molecule?
The value was 263.3 % of Control and 263.3 ± 25.2 % of Control.

And the “PLP/DM20 Expression (WB, % of Control)” value ([1]; Table 4, 10 μM)?
The value was 286.8 ± 16.5 % of Control.

What about the “percentage of differentiated cells compared to A treated cells” value ([2]; 10 μM) of the same molecule?
The value was 159.1%.

What about the “concentration at which induction of oligodendrocyte differentiation reached maximum levels” value ([2]; 48 hrs and 7 days treatment) of the same molecule?
The value was 0.1 µM.

And the “cell morphology after long-term exposure” value ([2]; 7 days after treatment)?
Its value is “formation of long-thick processes and major membranous structures”.

And the “Differentiated Cells (IC, % of Control)” value ([2]; Table 3, 10 μM, 48 hrs, 10 µM)?
Its value is 296.1 % of Control.

What about the “Differentiated Cells (IC, % of Control)” value ([2]; Table 3, 10 μM, 48 hrs, listed as drawing 48, 10 µM) of the same molecule?
The value was 296.1 ± 19 n = 4; p <0.05 % of Control.

And the “Differentiated Cells (IC, % of Control)” value ([2]; Table 4, 1 μM, 1 µM)?
Its value is 343 % of Control and 343.2 ± 52.3 % of Control.

What about the “Differentiated Cells (IC, % of Control)” value ([2]; Table 4, 10 μM) of the same molecule?
The value was 296 ± 38.06 % of Control.

`CCS(=O)(=O)N1CCN(C(=O)COc2ccc(-c3ccccc3)cc2)CC1` [Compound A, 1-[(4-biphenylyloxy)acetyl]-4-(ethylsulfonyl)piperazine] was tested. Which “induction … at low concentrations” value [1] did it give?
The value was “observed”.

And the “low concentration at which increased expression of the major myelin proteins is already detectable” value ([1]; 48 hrs)?
Its value is 0.1 µM.

What about the EC50 [1, 3] of the same molecule?
The EC50 was 10 nM.

What about the EC50 [1, 4] of the same molecule?
The EC50 was 23 nM.

And the “PLP/DM20 Expression (WB, % of Control)” value ([1]; Table 3, 10 μM, 48 hrs)?
Its value is 195 ± 25.8 n = 6; p <0.01 % of Control.

And the “PLP/DM20 Expression (WB, % of Control)” value ([1]; Table 4, 1 μM)?
Its value is 201.2 ± 49.4 % of Control.

And the “PLP/DM20 Expression (WB, % of Control)” value ([1]; Table 4, 10 μM)?
Its value is 195.1 % of Control and 195.1 ± 25.8 % of Control.

What about the “immunostaining for PLP and MBP: expression of myelin proteins” value ([2]; 10 μM, 48 hr (FIG. 1)) of the same molecule?
Its value is “increased expression”.

What about the “differentiated cells, percentage of total cells” value ([2]; 7 days after treatment, 0.1-10 μM, control 9.5%) of the same molecule?
Its value is “about 25%”.

And the “cell morphology after long-term exposure” value ([2]; 7 days after treatment)?
Its value is “clear morphology changes; also recorded: formation of long-thick processes and major membranous structures”.

And the “Differentiated Cells (IC, % of Control)” value ([2]; Table 3, 10 μM, 48 hrs)?
The value was 186.1 ± 44.8 n = 4; p <0.05 % of Control.

And the “Differentiated Cells (IC, % of Control)” value ([2]; Table 4, 1 μM)?
Its value is 248.9 ± 47.5 % of Control.

What about the “Differentiated Cells (IC, % of Control)” value ([2]; Table 4, 10 μM) of the same molecule?
The value was 289.3 ± 66.6 % of Control.

How did the “induction … at low concentrations” value [1] turn out when `O=[N+]([O-])c1ccc(F)c(NS(=O)(=O)c2ccc(F)cc2)c1` [Compound B, 4-fluoro-N-(2-fluoro-5-nitrophenyl)benzenesulfonamide] was run?
The value was “observed”.

What about the “oligodendrocyte cell differentiation at high doses compared with control cells” value ([1]; 10-50 μM) of the same molecule?
The value was “did not induce higher oligodendrocyte cell differentiation”.

And the “concentrations with significant/effective induction of myelin protein expression (western blot densitometry)” value ([1]; 48 hrs)?
Its value is 0.01 to 1 µM.

And the EC50 [1, 3]?
Its EC50 is 5 nM.

And the EC50 [1, 4]?
Its EC50 is 7 nM.

And the “cell morphology after long-term exposure” value ([2]; 7 days after treatment)?
The value was “clear morphology changes; also recorded: formation of long-thick processes and major membranous structures”.

And the “percentage of mature cells” value ([2]; 7 days, 10 μM)?
The value was “dropped to control levels”.
